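Each compound was tested at five concentrations against cells in 96-well plates for 48 hours. GI50: concentration for 50% inhibition of growth. TGI marks complete inhibition of growth.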
Key:
Test in all cases: NCI anticancer screen, dose series, 48 h
786-0 renal = test system: 786-0 renal
A498 renal = test system: A498 renal
A549 NSCLC = test system: A549 NSCLC
ACHN renal = test system: ACHN renal
BT-549 breast = test system: BT-549 breast
CAKI-1 renal = test system: CAKI-1 renal
CCRF-CEM leukemia = test system: CCRF-CEM leukemia
COLO 205 colon = test system: COLO 205 colon
DU-145 prostate = test system: DU-145 prostate
EKVX NSCLC = test system: EKVX NSCLC
HCC-2998 colon = test system: HCC-2998 colon
HCT-116 colon = test system: HCT-116 colon
HCT-15 colon = test system: HCT-15 colon
HL-60(TB) leukemia = test system: HL-60(TB) leukemia
HOP-62 NSCLC = test system: HOP-62 NSCLC
HOP-92 NSCLC = test system: HOP-92 NSCLC
HS 578T breast = test system: HS 578T breast
HT29 colon = test system: HT29 colon
IGROV1 ovarian = test system: IGROV1 ovarian
K-562 leukemia = test system: K-562 leukemia
KM12 colon = test system: KM12 colon
LOX IMVI melanoma = test system: LOX IMVI melanoma
M14 melanoma = test system: M14 melanoma
MALME-3M melanoma = test system: MALME-3M melanoma
MCF7 breast = test system: MCF7 breast
MDA-MB-231 breast = test system: MDA-MB-231 breast
MDA-MB-435 = test system: MDA-MB-435
MDA-MB-468 breast = test system: MDA-MB-468 breast
MOLT-4 leukemia = test system: MOLT-4 leukemia
NCI-H226 lung = test system: NCI-H226 lung
NCI-H23 lung = test system: NCI-H23 lung
NCI-H460 lung = test system: NCI-H460 lung
NCI-H522 lung = test system: NCI-H522 lung
NCI/ADR-RES ovarian = test system: NCI/ADR-RES ovarian
OVCAR-3 ovarian = test system: OVCAR-3 ovarian
OVCAR-4 ovarian = test system: OVCAR-4 ovarian
OVCAR-5 ovarian = test system: OVCAR-5 ovarian
OVCAR-8 ovarian = test system: OVCAR-8 ovarian
PC-3 prostate = test system: PC-3 prostate
RPMI-8226 leukemia = test system: RPMI-8226 leukemia
RXF 393 renal = test system: RXF 393 renal
SF-268 CNS = test system: SF-268 CNS
SF-295 CNS = test system: SF-295 CNS
SF-539 CNS = test system: SF-539 CNS
SK-MEL-2 melanoma = test system: SK-MEL-2 melanoma
SK-MEL-28 melanoma = test system: SK-MEL-28 melanoma
SK-MEL-5 melanoma = test system: SK-MEL-5 melanoma
SK-OV-3 ovarian = test system: SK-OV-3 ovarian
SN12C renal = test system: SN12C renal
SNB-19 CNS = test system: SNB-19 CNS
SNB-75 CNS = test system: SNB-75 CNS
SR leukemia = test system: SR leukemia
SW-620 colon = test system: SW-620 colon
T-47D breast = test system: T-47D breast
TK-10 renal = test system: TK-10 renal
U251 CNS = test system: U251 CNS
UACC-257 melanoma = test system: UACC-257 melanoma
UACC-62 melanoma = test system: UACC-62 melanoma
UO-31 renal = test system: UO-31 renal

With COc1ccc(-c2cc(C(=O)N=Nc3c(O)[nH]c4ccccc34)c3ccccc3n2)cc1 as the compound, how does the GI50 (786-0 renal) read?
The GI50 was 6.88 µM.

What about the TGI (786-0 renal) of the same compound?
The TGI was 20.8 µM.

What about the GI50 (A498 renal) of the same compound?
Its GI50 is 21.4 µM.

What about the TGI (A498 renal) of the same compound?
Its TGI is 38.6 µM.

And the GI50 (A549 NSCLC)?
Its GI50 is 2.08 µM.

What about the TGI (A549 NSCLC) of the same compound?
Its TGI is 4.78 µM.

And the GI50 (ACHN renal)?
The GI50 was 11 µM.

What about the TGI (ACHN renal) of the same compound?
The TGI was 22.9 µM.

What about the GI50 (BT-549 breast) of the same compound?
The GI50 was 14.5 µM.

And the TGI (BT-549 breast)?
The TGI was 29 µM.

And the GI50 (CAKI-1 renal)?
The GI50 was 2.56 µM.

What about the TGI (CAKI-1 renal) of the same compound?
Its TGI is 11 µM.

And the GI50 (CCRF-CEM leukemia)?
Its GI50 is 9.06 µM.

What about the TGI (CCRF-CEM leukemia) of the same compound?
Its TGI is greater than 100 µM.

What about the GI50 (COLO 205 colon) of the same compound?
Its GI50 is 11.6 µM.

And the TGI (COLO 205 colon)?
The TGI was 26.6 µM.

What about the GI50 (DU-145 prostate) of the same compound?
Its GI50 is 3.27 µM.

And the TGI (DU-145 prostate)?
The TGI was 12.1 µM.

And the TGI (EKVX NSCLC)?
The TGI was 22.5 µM.

What about the GI50 (HCC-2998 colon) of the same compound?
The GI50 was 3.87 µM.

What about the TGI (HCC-2998 colon) of the same compound?
The TGI was 13.1 µM.

What about the GI50 (HCT-116 colon) of the same compound?
Its GI50 is 3.18 µM.

What about the TGI (HCT-116 colon) of the same compound?
The TGI was 10.7 µM.

And the GI50 (HCT-15 colon)?
Its GI50 is 10.3 µM.

And the TGI (HCT-15 colon)?
The TGI was 24.7 µM.

What about the GI50 (HL-60(TB) leukemia) of the same compound?
The GI50 was 13.1 µM.

What about the TGI (HL-60(TB) leukemia) of the same compound?
Its TGI is greater than 100 µM.

What about the GI50 (HOP-62 NSCLC) of the same compound?
Its GI50 is 4.19 µM.

What about the TGI (HOP-62 NSCLC) of the same compound?
Its TGI is 17.8 µM.

What about the GI50 (HOP-92 NSCLC) of the same compound?
The GI50 was 3.26 µM.

What about the TGI (HOP-92 NSCLC) of the same compound?
The TGI was 16.7 µM.

What about the GI50 (HS 578T breast) of the same compound?
The GI50 was 14 µM.

And the TGI (HS 578T breast)?
The TGI was 65.7 µM.

What about the GI50 (HT29 colon) of the same compound?
The GI50 was 3.59 µM.

What about the TGI (HT29 colon) of the same compound?
The TGI was 12.8 µM.

What about the GI50 (IGROV1 ovarian) of the same compound?
The GI50 was 5.07 µM.

What about the TGI (IGROV1 ovarian) of the same compound?
The TGI was 18.3 µM.

What about the GI50 (K-562 leukemia) of the same compound?
The GI50 was 4.53 µM.

What about the TGI (K-562 leukemia) of the same compound?
Its TGI is greater than 100 µM.

And the GI50 (KM12 colon)?
The GI50 was 11.1 µM.

What about the TGI (KM12 colon) of the same compound?
The TGI was 28.3 µM.

What about the GI50 (LOX IMVI melanoma) of the same compound?
Its GI50 is 6.17 µM.

And the TGI (LOX IMVI melanoma)?
The TGI was 19.3 µM.

And the GI50 (M14 melanoma)?
The GI50 was 4.3 µM.

And the TGI (M14 melanoma)?
Its TGI is 17.4 µM.

What about the GI50 (MALME-3M melanoma) of the same compound?
Its GI50 is 3.14 µM.

What about the TGI (MALME-3M melanoma) of the same compound?
Its TGI is 9.99 µM.

And the GI50 (MCF7 breast)?
The GI50 was 10.7 µM.

And the TGI (MCF7 breast)?
Its TGI is 26.3 µM.

What about the GI50 (MDA-MB-231 breast) of the same compound?
The GI50 was 2.8 µM.

And the TGI (MDA-MB-231 breast)?
Its TGI is 10.2 µM.

What about the GI50 (MDA-MB-435) of the same compound?
Its GI50 is 3.04 µM.

What about the TGI (MDA-MB-435) of the same compound?
The TGI was 12.1 µM.

What about the GI50 (MDA-MB-468 breast) of the same compound?
Its GI50 is 4.94 µM.

What about the TGI (MDA-MB-468 breast) of the same compound?
The TGI was 17.3 µM.

And the GI50 (MOLT-4 leukemia)?
Its GI50 is 4.93 µM.

What about the TGI (MOLT-4 leukemia) of the same compound?
The TGI was greater than 100 µM.

What about the GI50 (NCI-H226 lung) of the same compound?
The GI50 was 4.1 µM.

And the TGI (NCI-H226 lung)?
The TGI was 19.4 µM.

What about the GI50 (NCI-H23 lung) of the same compound?
Its GI50 is 2.91 µM.

What about the TGI (NCI-H23 lung) of the same compound?
Its TGI is 11.4 µM.

What about the GI50 (NCI-H460 lung) of the same compound?
Its GI50 is 3.32 µM.

And the TGI (NCI-H460 lung)?
Its TGI is 11.4 µM.

What about the GI50 (NCI-H522 lung) of the same compound?
Its GI50 is 1.88 µM.

And the TGI (NCI-H522 lung)?
Its TGI is 4.71 µM.

What about the GI50 (NCI/ADR-RES ovarian) of the same compound?
Its GI50 is 3.48 µM.

What about the TGI (NCI/ADR-RES ovarian) of the same compound?
Its TGI is 15 µM.

What about the GI50 (OVCAR-3 ovarian) of the same compound?
Its GI50 is 3.63 µM.

And the TGI (OVCAR-3 ovarian)?
Its TGI is 14.4 µM.

What about the GI50 (OVCAR-4 ovarian) of the same compound?
Its GI50 is 5.24 µM.

And the TGI (OVCAR-4 ovarian)?
Its TGI is 20.9 µM.

And the GI50 (OVCAR-5 ovarian)?
The GI50 was 5.75 µM.

What about the TGI (OVCAR-5 ovarian) of the same compound?
The TGI was 18.6 µM.

And the GI50 (OVCAR-8 ovarian)?
Its GI50 is 3.13 µM.

And the TGI (OVCAR-8 ovarian)?
Its TGI is 12.4 µM.

What about the GI50 (PC-3 prostate) of the same compound?
Its GI50 is 5.2 µM.

What about the TGI (PC-3 prostate) of the same compound?
The TGI was 27.4 µM.

And the GI50 (RPMI-8226 leukemia)?
Its GI50 is 9.32 µM.

And the TGI (RPMI-8226 leukemia)?
The TGI was greater than 100 µM.

What about the GI50 (RXF 393 renal) of the same compound?
The GI50 was 4.16 µM.

What about the TGI (RXF 393 renal) of the same compound?
The TGI was 15.4 µM.

And the GI50 (SF-268 CNS)?
The GI50 was 4.43 µM.

And the TGI (SF-268 CNS)?
The TGI was 20.8 µM.

And the GI50 (SF-295 CNS)?
Its GI50 is 11.2 µM.

And the TGI (SF-295 CNS)?
Its TGI is 24 µM.

And the GI50 (SF-539 CNS)?
The GI50 was 3.2 µM.

And the TGI (SF-539 CNS)?
Its TGI is 10.2 µM.

What about the GI50 (SK-MEL-2 melanoma) of the same compound?
The GI50 was 16 µM.

What about the TGI (SK-MEL-2 melanoma) of the same compound?
The TGI was 35.2 µM.

And the GI50 (SK-MEL-28 melanoma)?
Its GI50 is 4.26 µM.

And the TGI (SK-MEL-28 melanoma)?
The TGI was 14.7 µM.

What about the GI50 (SK-MEL-5 melanoma) of the same compound?
Its GI50 is 12.1 µM.

And the TGI (SK-MEL-5 melanoma)?
Its TGI is 25 µM.

What about the GI50 (SK-OV-3 ovarian) of the same compound?
Its GI50 is 11.6 µM.

And the TGI (SK-OV-3 ovarian)?
The TGI was 24.8 µM.

What about the GI50 (SN12C renal) of the same compound?
The GI50 was 11.3 µM.

What about the TGI (SN12C renal) of the same compound?
Its TGI is 24.4 µM.

And the GI50 (SNB-19 CNS)?
The GI50 was 11 µM.

What about the TGI (SNB-19 CNS) of the same compound?
Its TGI is 23 µM.

What about the GI50 (SNB-75 CNS) of the same compound?
Its GI50 is 1.94 µM.

And the TGI (SNB-75 CNS)?
Its TGI is 15.1 µM.

What about the GI50 (SR leukemia) of the same compound?
The GI50 was 4.05 µM.

And the TGI (SR leukemia)?
The TGI was greater than 100 µM.

What about the GI50 (SW-620 colon) of the same compound?
Its GI50 is 3.91 µM.

What about the TGI (SW-620 colon) of the same compound?
Its TGI is 17.5 µM.

What about the GI50 (T-47D breast) of the same compound?
Its GI50 is 8.61 µM.

What about the TGI (T-47D breast) of the same compound?
The TGI was 27.2 µM.

And the GI50 (TK-10 renal)?
Its GI50 is 17.9 µM.

What about the TGI (TK-10 renal) of the same compound?
The TGI was 32.9 µM.

And the GI50 (U251 CNS)?
Its GI50 is 2.34 µM.

What about the TGI (U251 CNS) of the same compound?
Its TGI is 6.37 µM.

And the GI50 (UACC-257 melanoma)?
The GI50 was 9.71 µM.

What about the TGI (UACC-257 melanoma) of the same compound?
The TGI was 24.1 µM.

And the GI50 (UACC-62 melanoma)?
The GI50 was 9.93 µM.

What about the TGI (UACC-62 melanoma) of the same compound?
Its TGI is 21.8 µM.

And the GI50 (UO-31 renal)?
Its GI50 is 6 µM.

And the TGI (UO-31 renal)?
The TGI was 20.1 µM.

Source: PubChem BioAssay (NCI)
